Laboratory results: publication PMC8044163, “Vitamin D and lumisterol derivatives can act on liver X receptors (LXRs)” (Scientific Reports, 2021)

Test system: murine dermal fibroblasts
Test: RNA-Seq of newborn murine dermal fibroblasts
Format: cell-based, mouse
Conditions: 10^−7 M, 24 h; for number of genes solely downregulated / number of genes solely upregulated: FC ≥ 2
Description: All animal studies followed guidelines outlined by the NIH Guide for the Care and Use of Laboratory Animals and protocols were approved by the Institutional Animal Care and Use Committee at the NIEHS or the UAB. […] Skin samples from newborn C57BL/6 mice were collected at the NIEHS. Dermal fibroblasts were isolated from the skin of newborn mice, 1–2 day old. Briefly, we followed the protocols described previously. The skin was washed in PBS, cut into smaller pieces and incubated in 2.4 U/ml of dispase II (Roche) overnight at 4 °C. The dermis was separated from the epidermis and incubated in 0.1% collagenase (Roche) at 4 °C overnight. […] Single cell suspension was prepared by pipetting and draining through a cell strainer. After centrifugation, cell pellets were suspended in DMEM medium containing 10% charcoal-stripped fetal bovine serum (cFBS), mouse fibroblasts growth factor (FGF) and 1% antibiotic, and inoculated into tissue culture dishes (Midwest Scientific, TPP). Cells, in early passages, from different mice were pooled together to provide representative samples for experiments. Fibroblasts were cultured in Petri dishes (10 cm in diameter) in DMEM and 10% cFBS and triplicate semi-confluent cultures were treated as described.
Triplicate cultures of murine fibroblasts were used for RNA isolation (RNAeasy Micro kit, Qiagen), the RNA samples were combined for each condition and at least 200 ng of RNA for each sample was used to create libraries for RNA sequencing by BGI Americas Corporation Service (Cambridge, MA)[67]. Quality of RNA and its concentration were determined using Agilent 2100.
The raw sequence FASTQ files were aligned to Gencode’s GRCm38 p4 Release M11 genome using STAR version 2.5.4b (parameters used: –outReadsUnmapped Fastx; –outSAMtype BAM SortedByCoordinate; –outSAMattributes All; –outFilterIntronMotifs RemoveNoncanonicalUnannotated)[69]. The abundance of transcripts was calculated from the alignments using Cufflinks version 2.2.1 (parameters used: –G; –L; –library-type fr-firststrand). Samples were merged using default parameters with Cuffmerge[70],[71]. The differential expression was calculated using Cuffdiff’s default parameters. The raw data have been deposited at the NCBI GEO (GSE145818).

C=C1/C(=C\C=C2/CCC[C@]3(C)[C@@H]([C@H](C)CCCC(C)(C)O)CC[C@@H]23)C[C@@H](O)C[C@@H]1O [1,25(OH)2D3, reference compound]
Adh7 expression level: 1.042 | Aqp11 expression level: 0.9562 | Arid3b expression level: 1.268 | Bicd1 expression level: 0.7304 | Btc expression level: 0.9514 | Car9 expression level: 3.341 | Cbs expression level: 0.4189 | Ccl4 expression level: 0 | Cd68 expression level: 5.274 | Cd200 expression level: 0.3998 | Cherp expression level: 35.1454 | Clec2g expression level: 0 | Cnnm4 expression level: 11.9457 | Cox15 expression level: 15.3542 | Cpa2 expression level: 0.3127 | Ctrl expression level: 0.3422 | Dcun1d1 expression level: 6.457 | Defb42 expression level: 0.2302 | Dtx1 expression level: 0.2518 | Ehf expression level: 0.2831 | Ercc2 expression level: 13.8618 | Erh expression level: 2.728 | Fmnl1 expression level: 0.04415 | Gys2 expression level: 0 | Hist1h2ab expression level: 1.144 | Hist1h2bg expression level: 0.5636 | Hist1h2bh expression level: 0 | Hist1h4c expression level: 0 | Isl1 expression level: 0.2249 | Krt19 expression level: 14.9744 | Larp1b expression level: 2.787 | Lhx6 expression level: 3.883 | Lsm5 expression level: 0.9896 | M1ap expression level: 1.719 | Med9os expression level: 0.7826 | Nckipsd expression level: 15.4716 | Nr3c2 expression level: 0.1558 | Nr6a1 expression level: 0.3582 | Ntrk3 expression level: 0 | Parvg expression level: 0.1595 | Pde4dip expression level: 20.1604 | Psd4 expression level: 0.7259 | Ptpa expression level: 235.847 | Ptpn6 expression level: 2.532 | Rnu3a expression level: 0 | Rpph1 expression level: 0.655 | Rsad1 expression level: 1.447 | Saa1 expression level: 0.19 | Samd12 expression level: 0.7427 | Scn8a expression level: 0.3603 | Sgca expression level: 0.3791 | Slc15a4 expression level: 20.8062 | Slc16a5 expression level: 0.1731 | Snhg9 expression level: 3.721 | St7 expression level: 31.903 | Stmn1 expression level: 3.691 | Susd1 expression level: 2.151 | Syt8 expression level: 1.517 | Syt12 expression level: 0.9903 | Tldc2 expression level: 0.381 | Tnnc2 expression level: 0 | Unc5c expression level: 0.3264 | Wdr17 expression level: 0.7213 | Zbtb18 expression level: 5.623 | Zfp618 expression level: 1.668 | number of genes downregulated, FC ≥ 2: 566 | number of genes upregulated, FC ≥ 2: 601 | number of genes solely downregulated: 159 (15%) | number of genes solely upregulated: 322 (21.4%)

CC(C)CCC[C@](C)(O)[C@H]1CC[C@H]2[C@@H]3CC=C4C[C@@H](O)CC[C@]4(C)[C@H]3CC[C@@]21C [20(OH)C, 20-hydroxycholesterol, reference compound]
Adh7 expression level: 0.7754 | Adh7 log2(fold_change) vs control: 1.595 | Aqp11 expression level: 0.8073 | Aqp11 log2(fold_change) vs control: 1.853 | Arid3b expression level: 0.9108 | Arid3b log2(fold_change) vs control: -1.9 | Bicd1 expression level: 0.39 | Bicd1 log2(fold_change) vs control: -2.453 | Btc expression level: 1.112 | Btc log2(fold_change) vs control: 2.1992 | Car9 expression level: 1.738 | Car9 log2(fold_change) vs control: -2.435 | Cbs expression level: 0.5333 | Cbs log2(fold_change) vs control: -1.867 | Ccl4 expression level: 0.1695 | Ccl4 log2(fold_change) vs control: -2.322 | Cd68 expression level: 2.992 | Cd68 log2(fold_change) vs control: 1.391 | Cd200 expression level: 0.446 | Cd200 log2(fold_change) vs control: -1.664 | Cherp expression level: 31.8463 | Cherp log2(fold_change) vs control: -2.536 | Clec2g expression level: 0 | Clec2g log2(fold_change) vs control: -inf | Cnnm4 expression level: 3.864 | Cnnm4 log2(fold_change) vs control: -3.699 | Cox15 expression level: 14.0674 | Cox15 log2(fold_change) vs control: 1.269 | Cpa2 expression level: 0.3139 | Cpa2 log2(fold_change) vs control: -2.322 | Ctrl expression level: 0.4557 | Ctrl log2(fold_change) vs control: -1.16 | Dcun1d1 expression level: 3.938 | Dcun1d1 log2(fold_change) vs control: -1.746 | Defb42 expression level: 0.3618 | Defb42 log2(fold_change) vs control: -1.335 | Dtx1 expression level: 0.6172 | Dtx1 log2(fold_change) vs control: -1.429 | Ehf expression level: 0.3171 | Ehf log2(fold_change) vs control: -1.391 | Ercc2 expression level: 15.1049 | Ercc2 log2(fold_change) vs control: -3.489 | Erh expression level: 1.52 | Erh log2(fold_change) vs control: -2.047 | Fmnl1 expression level: 0.0589 | Fmnl1 log2(fold_change) vs control: -3.9854 | Gys2 expression level: 0 | Gys2 log2(fold_change) vs control: -inf | Hist1h2ab expression level: 1.148 | Hist1h2ab log2(fold_change) vs control: 2 | Hist1h2bg expression level: 0.5658 | Hist1h2bg log2(fold_change) vs control: -2 | Hist1h2bh expression level: 0 | Hist1h2bh log2(fold_change) vs control: -inf | Hist1h4c expression level: 0.4039 | Hist1h4c log2(fold_change) vs control: -1 | Isl1 expression level: 0.3429 | Isl1 log2(fold_change) vs control: -1.227 | Krt19 expression level: 12.2793 | Krt19 log2(fold_change) vs control: 1.279 | Larp1b expression level: 3.613 | Larp1b log2(fold_change) vs control: -2.853 | Lhx6 expression level: 2.203 | Lhx6 log2(fold_change) vs control: -2.404 | Lsm5 expression level: 0.8846 | Lsm5 log2(fold_change) vs control: -1.59 | M1ap expression level: 2.484 | M1ap log2(fold_change) vs control: 2.0059 | Med9os expression level: 0.3191 | Med9os log2(fold_change) vs control: -2.7 | Nckipsd expression level: 8.765 | Nckipsd log2(fold_change) vs control: 1.073 | Nr3c2 expression level: 0.1285 | Nr3c2 log2(fold_change) vs control: -3.098 | Nr6a1 expression level: 0.3735 | Nr6a1 log2(fold_change) vs control: -2.304 | Ntrk3 expression level: 0.3696 | Ntrk3 log2(fold_change) vs control: -2.33 | Parvg expression level: 0.09605 | Parvg log2(fold_change) vs control: -3.946 | Pde4dip expression level: 20.5427 | Pde4dip log2(fold_change) vs control: -7.578 | Psd4 expression level: 0.1792 | Psd4 log2(fold_change) vs control: -3.129 | Ptpa expression level: 149.828 | Ptpa log2(fold_change) vs control: 1.1778 | Ptpn6 expression level: 1.723 | Ptpn6 log2(fold_change) vs control: -2.798 | Rnu3a expression level: 0 | Rnu3a log2(fold_change) vs control: -inf | Rpph1 expression level: 0.6576 | Rpph1 log2(fold_change) vs control: -1 | Rsad1 expression level: 1.413 | Rsad1 log2(fold_change) vs control: -1.15 | Saa1 expression level: 0.1908 | Saa1 log2(fold_change) vs control: -2.322 | Samd12 expression level: 0.5476 | Samd12 log2(fold_change) vs control: -2.717 | Scn8a expression level: 0.2978 | Scn8a log2(fold_change) vs control: -1.43 | Sgca expression level: 0.3806 | Sgca log2(fold_change) vs control: -1.697 | Slc15a4 expression level: 13.0176 | Slc15a4 log2(fold_change) vs control: -2.132 | Slc16a5 expression level: 0.4564 | Slc16a5 log2(fold_change) vs control: -1.015 | Snhg9 expression level: 7.471 | Snhg9 log2(fold_change) vs control: -1.322 | St7 expression level: 21.7063 | St7 log2(fold_change) vs control: -1.667 | Stmn1 expression level: 6.2905 | Stmn1 log2(fold_change) vs control: 2.02 | Susd1 expression level: 2.158 | Susd1 log2(fold_change) vs control: 1.637 | Syt8 expression level: 0.2562 | Syt8 log2(fold_change) vs control: -3.638 | Syt12 expression level: 1.318 | Syt12 log2(fold_change) vs control: -1.636 | Tldc2 expression level: 0 | Tldc2 log2(fold_change) vs control: -inf | Tnnc2 expression level: 0.1558 | Tnnc2 log2(fold_change) vs control: -2.361 | Unc5c expression level: 0.4963 | Unc5c log2(fold_change) vs control: -1.133 | Wdr17 expression level: 0.677 | Wdr17 log2(fold_change) vs control: -1.73 | Zbtb18 expression level: 5.289 | Zbtb18 log2(fold_change) vs control: -3.07 | Zfp618 expression level: 2.236 | Zfp618 log2(fold_change) vs control: -1.093 | number of genes downregulated, FC ≥ 2: 498 | number of genes upregulated, FC ≥ 2: 564 | number of genes solely downregulated: 109 (10.3%) | number of genes solely upregulated: 291 (19.4%)
